Assay results as given in patent US12083109B2, “Neurokinin antagonists and uses thereof” (California Institute of Technology, priority 2017, dated 2024).
“Also recorded” adds a separate entry of the source.

Experiments:
[1] = target: T1, Nk3R (Mus musculus, UniProt P47937); test: Social interaction assay, osanetant; format: in vivo; design: from tissue; host or cells: Living mice (wild-type C57Bl6/N males, Charles River); details: SIS mice; acute systemic osanetant; listed as Osanetant
T1 sequence (P47937 1-452): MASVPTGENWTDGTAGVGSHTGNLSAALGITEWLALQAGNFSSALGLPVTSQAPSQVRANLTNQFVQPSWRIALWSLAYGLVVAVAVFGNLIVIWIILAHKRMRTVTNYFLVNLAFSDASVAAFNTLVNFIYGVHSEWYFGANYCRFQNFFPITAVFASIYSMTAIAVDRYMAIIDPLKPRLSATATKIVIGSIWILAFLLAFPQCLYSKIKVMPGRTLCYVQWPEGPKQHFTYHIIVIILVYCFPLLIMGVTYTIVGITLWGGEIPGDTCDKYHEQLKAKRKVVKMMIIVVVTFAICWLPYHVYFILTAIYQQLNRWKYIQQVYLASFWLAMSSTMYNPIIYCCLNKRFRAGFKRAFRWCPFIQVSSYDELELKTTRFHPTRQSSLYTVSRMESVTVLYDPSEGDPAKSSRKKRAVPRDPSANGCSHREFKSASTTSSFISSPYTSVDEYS
Procedure: Mice were administered the Nk3R antagonist osanetant (Axon Medchem, Axon 1533) either systemically or intra-brain region. Osanctant was dissolved in saline with 0.1% Tween 20 (vehicle). For systemic administration mice received an intraperitoneal (i.p.) injection (5 mg/kg) 20 minutes prior to behavioral testing. For microinfusions, guide cannulas were removed from mice and replaced with injector cannulas (Plastics One), which protruded 0.5 mm from the tip of the guide cannula. Injectors were attached to 5 μl Hamilton syringes with PE tubing (Plastics One) and mounted on a microinfusion pump (Harvard Apparatus) for controlled infusion of osanetant (0.3 μl vehicle with 375 ng dose per site injected over 6 minutes). For experiments using systemic administration of clozapine-N-oxide (CNO), CNO (Enzo Life Sciences-Biomol, BML-NS105-0005) was dissolved in saline (9 g/L NaCl) and injected (i.p.) at 5 mg/kg for hM4DREADD silencing or 2 mg/kg for hM3DREADD activation 20 minutes prior to behavioral testing. CNO was also administered chronically in drinking water (0.5 mg CNO/100 ml water).

[2] = target: T1, Nk3R; test: SIS mice: overall behavioral effects and return to group housing, osanetant; format: in vivo; design: from tissue; host or cells: Living mice (wild-type C57Bl6/N males, Charles River); details: for fighting/aggression on return of SIS mice to housing with cagemates: osanetant during or during or following SIS
Source text: WT males (Charles River) were housed in isolation (1 animal per cage), or in groups of 3. Tac2-Cre males (bred in-house) were housed in isolation, or in groups of 2-5. Animals were isolated post-weaning, at 8-16 weeks of age. All cage conditions remained otherwise identical for group-housed mice compared to isolated animals, and mice were housed on the same rack in the same vivarium. Except as otherwise indicated, social isolation was maintained for at least 2 weeks (this period was extended in the case of surgical experiments, i.e. when adequate time for recovery and viral expression levels were required). All mice were between 12-20 weeks of age at the time of behavioral testing. We asked whether Tac2 signaling is required during the period of social isolation to observe the changes in behavior. Mice were administered osanetant daily in their home cage during the two-week social isolation period, but were then tested off-drug. To control for carry-over of the drug from the final homecage administration into the testing period (24 hrs later), an additional group of mice was subjected to two weeks of SIS without drug, and given a single home-cage administration of osanetant 24 hours prior to testing (FIG. 3G).

CC(=O)N(C)C1(c2ccccc2)CCN(CCC[C@]2(c3ccc(Cl)c(Cl)c3)CCCN(C(=O)c3ccccc3)C2)CC1 [osanetant, N-(1-{3-[(3R)-1-benzoyl-3-(3,4-dichlorophenyl)piperidin-3-yl]propyl}-4-phenylpiperidin-4-yl)-N-methylacetamide]
SIS-induced decreased social interaction (time in social zone) [1]: blocked; also recorded: attenuated | behavioral effects of 2 weeks of social isolation stress (overall) ([2]; mice): protects and prevents | fighting/aggression on return of SIS mice to housing with cagemates [2]: without any subsequent fighting observed | fighting/aggression on return of SIS mice to housing with cagemates ([2]; listed as Osanetant): prevents aggression
